According to PMC5526877, “Structure of Chorismate Mutase-like Domain of DAHPS from Bacillus subtilis Complexed with Novel Inhibitor Reveals Conformational Plasticity of Active Site” (Scientific Reports, 2017):
Structures can show the parent of a compound that is named as a salt. Values belong to the molecule of their own block, whether it stands above or below them.

What was measured:
[1] = biological target: T1, BsCM_2 (chorismate mutase type II N-terminal domain of DAHPS) (Bacillus subtilis, UniProt P39912); assay: co-crystal structure at […] Å and ITC; also competitive enzyme inhibition (Ki […], IC50 […]); type: binding; parameters: gene aroA; N-terminal chorismate mutase-like domain of DAHPS (306 bp fragment), homodimer; conditions: read-out: Dissociation constant, K D
[2] = biological target: T1, BsCM_2 (chorismate mutase type II N-terminal domain of DAHPS); assay: crystal structure at […] Å (citrate from crystallization buffer) and ITC; type: binding; parameters: gene aroA; N-terminal chorismate mutase-like domain of DAHPS (306 bp fragment), homodimer
[3] = biological target: T1, BsCM_2 (chorismate mutase type II N-terminal domain of DAHPS); assay: ITC; also Michaelis-Menten kinetics (Km […]); type: binding; parameters: gene aroA; N-terminal chorismate mutase-like domain of DAHPS (306 bp fragment); conditions: read-out: Dissociation constant, K D
[4] = biological target: the molecule itself; assay: crystal structure; BsCM_2 co-crystallised with chlorogenic acid (1.8 Å, P21, two monomers per asymmetric unit) and with citrate from the buffer (1.9 Å, P1, four monomers per asymmetric unit); sitting drop, 1 M ammonium sulphate, 0.1 M potassium sodium tartrate, 0.1 M sodium citrate pH 5.8, 20 °C; dimer interface analysed with PISA

- Kd [1]: 480 µM
Molecule: O=C(/C=C/c1ccc(O)c(O)c1)O[C@@H]1C[C@](O)(C(=O)O)C[C@@H](O)[C@H]1O [CGA, chlorogenic acid]

Molecule: O=C(O)CC(O)(CC(=O)O)C(=O)O [CIT, citrate]
- Kd [2]: 600 µM

- Kd [3]: 725 µM
Molecule: C=C(O[C@@H]1C=C(C(=O)O)C=C[C@H]1O)C(=O)O [chorismate]

B1: Chorismate mutase type II-like N-terminal domain (AroQ class) of 3-deoxy-D-arabino-heptulosonate-7-phosphate synthase (DAHPS) from Bacillus subtilis (domain or fragment, Bacillus subtilis strain 3256)
chain: MSNTELELLRQKADELNLQILKLINERGNVVKEIGKAKEAQGVNRFDPVRERTMLNNIIENNDGPFENSTIQHIFKEIFKAGLELQEEDH
notes: the forward primer encodes MSNTEL from the start codon, the reverse primer encodes ...QEEDH followed by a stop codon; residues 1-88 are spoken of in the structures; strain 3256 may differ; also called BsCM_2; CM_2 domain; source: E. coli BL21 (DE3), pET28c/BsCM_2, purified (HisTrap Ni-NTA, Superdex 75 SEC)
- stoichiometry N [4]: 2
